Data published in US20210153773A1, “DEVICE AND METHOD FOR DETECTION AND MONITORING OF COUGH” (priority 2019, published 2021).

Test system: cough reflex
Assay: Citric acid spray tussive challenge (cough provocation)
Conditions: 50 mg/mL in distilled water, perfume sprayer held about 1 foot from the nose, ~0.07 to 0.10 mL per activation, every subject tested (n=10)
Method: When held at about 1 foot in front of the nose and activated, a fine spray of ˜0.07 to 0.10 mL is released per activation.

O=C(O)CC(O)(CC(=O)O)C(=O)O [citric acid]
number of coughs provoked by inhaled spray: one to six
